These results are taken from patent US20110160255A1, “INHIBITORS OF AKT ACTIVITY” (priority 2008, published 2011).

The test deals with T1, full length AKT1 (Homo sapiens, UniProt P31749).
T1 construct: His tag (from vector pFastBacHTb) (N); made in house; host or cells: Baculovirus, insect cells (virus made in Sf9, T. ni cells infected; the purification text says sf9 cells)
Briefly: Full-length AKT enzyme assay (substrate phosphorylation, SPA). Type of test: biochemical. The note with it: in at least one experimental run; pIC50 = -log(IC50), IC50 in molar units; 4 uM ATP, 10 nM activated enzyme; read-out: pIC50 against full length AKT1 (converted). From the text: Full-length human AKT1 gene was amplified by PCR from a plasmid containing myristylated-AKT1-ER (gift from Robert T. Abraham, Duke University under MTA, described in Klippel et al. in Molecular and Cellular Biology 1998 Volume 18 p. 5699) using the 5′ primer: SEQ. ID NO: 2 5′ […] 3′ and the 3′ primer: SEQ. ID NO: 3 […] 3′. The 5′ primer included a BamHI site and the 3′ primer included an XhoI site for cloning purposes. The resultant PCR product was subcloned in pcDNA3 as a BamHI/XhoI fragment. A mutation in the sequence (TGC) coding for a Cysteine^25 was converted to the wild-type AKT1 sequence (CGC) coding for an Arginine^25 by site-directed mutagenesis using the QuikChange® Site Directed Mutagenesis Kit (Stratagene). The AKT1 mutagenic primer: SEQ. ID NO: 4 5′[…] and selection primer: SEQ. […] For expression/purification purposes, AKT1 was isolated as a BamHI/XhoI fragment and cloned into the BamHI/XhoI sites of pFastbacHTb (Invitrogen).
Expression was done using the BAC-to-BAC Baculovirus Expression System from Invitrogen (catalog #10359-016). […]
Compounds of the present invention were tested for AKT 1, 2, and 3 protein serine kinase inhibitory activity in substrate phosphorylation assays. […] Substrate phosphorylation was detected by the following procedure. […]

T1 sequence (P31749 whole entry): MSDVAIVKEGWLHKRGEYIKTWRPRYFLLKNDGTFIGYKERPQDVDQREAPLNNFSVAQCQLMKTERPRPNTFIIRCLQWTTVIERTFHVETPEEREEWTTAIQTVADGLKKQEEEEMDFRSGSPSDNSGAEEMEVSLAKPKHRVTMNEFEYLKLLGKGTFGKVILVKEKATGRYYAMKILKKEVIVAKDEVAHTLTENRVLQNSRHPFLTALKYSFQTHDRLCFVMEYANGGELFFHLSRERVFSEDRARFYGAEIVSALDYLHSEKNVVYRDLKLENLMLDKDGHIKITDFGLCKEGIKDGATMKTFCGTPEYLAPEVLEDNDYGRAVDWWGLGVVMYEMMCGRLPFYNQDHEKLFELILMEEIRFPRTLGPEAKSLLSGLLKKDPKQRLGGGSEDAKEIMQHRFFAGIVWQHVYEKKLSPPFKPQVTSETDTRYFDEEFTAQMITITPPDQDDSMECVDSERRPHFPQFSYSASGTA

For `Cn1nccc1-c1nc(C(=O)N[C@H](CN)Cc2cccc(F)c2)cs1` [Example 1, N-{(1S)-2-amino-1-[(3-fluorophenyl)methyl]ethyl}-2-(1-methyl-1H-pyrazol-5-yl)-1,3-thiazole-4-carboxamide], the IC50 is 501 nM.
